Values of other authors in patent US6140347A, “Azetidine, pyrrolidine and piperidine derivatives as 5-HT receptor agonists” (Merck Sharp & Dohme Ltd., priority 1996, dated 2000).

Key:
[1] = tested on: human 5-HT1Dα and 5-HT1Dβ receptor subtypes; settings: cf. WO-A-91/17174, Table 1
[2] = therapeutic doses

- discrimination between the human 5-HT1Dα and 5-HT1Dβ receptor subtypes (in words) [1]: barely discriminates
Compound: CNS(=O)(=O)Cc1ccc2[nH]cc(CCN(C)C)c2c1 [sumatriptan]
- adverse cardiovascular events in humans (in words) [2]: certain adverse cardiovascular events
